In patent US11458213B2, “Prostate-specific membrane antigen targeted high-affinity agents for endoradiotherapy of prostate cancer” (THE JOHNS HOPKINS UNIVERSITY, priority 2016, dated 2022):

Columns and labels:
LogP octanol/water = type: physicochemical
[1] = biological target: prostate-specific membrane antigen (PSMA) (Homo sapiens, UniProt Q04609); assay: Binding affinities of the representative agents (PSMA)
PSMA+ PC3 PIP cells [2] = assay: Cell binding, uptake and internalization in PSMA+ PC3 PIP cells; type: cell-based; conditions: for Cell surface / Cell uptake PSMA + PC3 PIP / Internalization (cell lysate): 4 h incubation, n = 3; for uptake in PSMA+ PC3 cells (in words): compared to ^177Lu-3
[3] = tested on: PSMA-negative PC3 flu cells; assay: Cell uptake in PSMA-negative PC3 flu cells; type: cell-based; conditions: 4 h incubation, n = 3
PSMA+ PC3 PIP cells [4] = assay: Clonogenic assay in PSMA+ PC3 PIP cells; type: cell-based; conditions: 10 μCi dose
PSMA-PC3 flu cells = assay: Clonogenic assay in PSMA- PC3 flu cells; type: cell-based; conditions: 10 μCi dose
PSMA+ PC3 PIP tumor [5] = assay: Treatment study (SPECT imaging and therapeutic effect) in tumor-bearing mice; type: in vivo
Experimental: A single dose of 3 mCi was injected via tail-vain injection in mice (n=10) bearing PSMA+ PC3 PIP tumor (size 3-5 mm). Saline was injected to another group of mice (n=10) for control study. Mice were monitored for body weight tumor size measure for two times per week. The control group of mice was euthanized after 4-8 weeks as the size of tumors over were >12 mm.

PSMA+ PC3 PIP tumor [6] = assay: In vivo tissue biodistribution; conditions: for tissue biodistribution PC-3 Flu: PC-3 Flu tumor; for tissue biodistribution PC-3 PIP: PC-3 PIP tumor

prostate-specific membrane antigen (PSMA), sequence (Q04609 whole entry): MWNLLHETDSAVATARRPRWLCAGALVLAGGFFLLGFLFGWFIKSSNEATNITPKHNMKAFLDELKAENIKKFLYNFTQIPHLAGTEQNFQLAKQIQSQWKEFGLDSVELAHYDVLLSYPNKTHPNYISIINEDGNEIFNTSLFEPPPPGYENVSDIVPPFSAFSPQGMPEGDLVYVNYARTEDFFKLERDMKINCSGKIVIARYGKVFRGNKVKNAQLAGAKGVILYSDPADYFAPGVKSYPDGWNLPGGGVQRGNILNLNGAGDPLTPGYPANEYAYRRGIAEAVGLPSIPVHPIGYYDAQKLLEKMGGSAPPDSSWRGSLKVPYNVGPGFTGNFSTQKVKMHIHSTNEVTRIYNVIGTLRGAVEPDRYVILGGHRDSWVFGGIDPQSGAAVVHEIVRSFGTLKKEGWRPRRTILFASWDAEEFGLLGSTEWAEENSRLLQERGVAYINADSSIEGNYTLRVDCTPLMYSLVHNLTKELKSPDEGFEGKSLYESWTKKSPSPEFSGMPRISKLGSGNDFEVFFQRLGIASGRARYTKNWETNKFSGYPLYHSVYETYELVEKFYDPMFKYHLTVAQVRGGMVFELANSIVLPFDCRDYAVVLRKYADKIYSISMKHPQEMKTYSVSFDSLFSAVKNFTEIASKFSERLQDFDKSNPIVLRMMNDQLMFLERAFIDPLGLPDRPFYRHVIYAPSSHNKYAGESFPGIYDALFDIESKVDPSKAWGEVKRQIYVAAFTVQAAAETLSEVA

O=C(O)CC[C@H](NC(=O)N[C@@H](CCCCN(Cc1ccc(Br)cc1)C(=O)CCCCNC(=S)Nc1ccc(CC2CN(CC(=O)O)CCN(CC(=O)O)CCN(CC(=O)O)CCN2CC(=O)O)cc1)C(=O)O)C(=O)O (stereo partly drawn) [Compound 1]
LogPoct/water (LogP octanol/water): −3.0 | IC50 [1]: 0.57 nM | Ki [1]: 1.15 nM | binding affinity for PSMA (in words) [1]: higher binding affinity compared to 3

O=C([O-])CN1CCN(CC(=O)[O-])CCN(CC(=O)O)C(Cc2ccc(NC(=S)NCCCCC(=O)NCCCC[C@H](NC(=O)N[C@@H](CCC(=O)O)C(=O)O)C(=O)O)cc2)CN(CC(=O)[O-])CC1.[177Lu+3] (stereo partly drawn) [^177Lu-3]
Cell surface (PSMA+ PC3 PIP cells [2]): 12.50 percent incubated dose per one million cells | Cell uptake PSMA + PC3 PIP (PSMA+ PC3 PIP cells [2]): 24.50 percent incubated dose per one million cells | Internalization (cell lysate) (PSMA+ PC3 PIP cells [2]): 8.75 percent incubated dose per one million cells | Cell uptake PSMA − PC3 flu [3]: 0.05 percent incubated dose per one million cells

O=C(O)CC[C@H](NC(=O)N[C@@H](CCCCN(Cc1ccc(Br)cc1)C(=O)CCCCNC(=O)CN1CCN(CC(=O)O)CCN(CC(=O)O)CCN(CC(=O)O)CC1)C(=O)O)C(=O)O [Compound 2]
LogPoct/water (LogP octanol/water): −3.53 | IC50 [1]: 0.64 nM | Ki [1]: 1.28 nM | binding affinity for PSMA (in words) [1]: higher binding affinity compared to 3

O=C(O)CC[C@H](NC(=O)N[C@@H](CCCCNC(=O)CCCCNC(=S)Nc1ccc(CC2CN(CC(=O)O)CCN(CC(=O)O)CCN(CC(=O)O)CCN2CC(=O)O)cc1)C(=O)O)C(=O)O (stereo partly drawn) [Compound 3]
LogPoct/water (LogP octanol/water): −3.2 | IC50 [1]: 2.16 nM | Ki [1]: 0.43 nM

O=C([O-])CN1CCN(CC(=O)[O-])CCN(CC(=O)NCCCCC(=O)N(CCCC[C@H](NC(=O)N[C@@H](CCC(=O)O)C(=O)O)C(=O)O)Cc2ccc(Br)cc2)CCN(CC(=O)[O-])CC1.[177Lu+3] [^177Lu-2]
Cell uptake PSMA + PC3 PIP (PSMA+ PC3 PIP cells [2]): 40.6 percent incubated dose per one million cells | uptake in PSMA+ PC3 cells (in words) (PSMA+ PC3 PIP cells [2]): higher uptake in PSMA+ PC3 cells compared to ^177Lu-3 | Cell uptake PSMA − PC3 flu [3]: 0.12 percent incubated dose per one million cells

O=C([O-])CN1CCN(CC(=O)[O-])CCN(CC(=O)O)C(Cc2ccc(NC(=S)NCCCCC(=O)N(CCCC[C@H](NC(=O)N[C@@H](CCC(=O)O)C(=O)O)C(=O)O)Cc3ccc(Br)cc3)cc2)CN(CC(=O)[O-])CC1.[177Lu+3] (stereo partly drawn) [^177Lu-1]
cell killing efficacy (PSMA+ PC3 PIP cells [4]): about 100% | internalized activity compared to ^177Lu-3 (PSMA+ PC3 PIP cells [2]): ~2 fold | Cell surface (PSMA+ PC3 PIP cells [2]): 27.68 percent incubated dose per one million cells | Cell uptake PSMA + PC3 PIP (PSMA+ PC3 PIP cells [2]): 42.60 percent incubated dose per one million cells | Internalization (cell lysate) (PSMA+ PC3 PIP cells [2]): 15.88 percent incubated dose per one million cells | uptake in PSMA+ PC3 cells (in words) (PSMA+ PC3 PIP cells [2]): higher uptake in PSMA+ PC3 cells compared to ^177Lu-3 | toxicity for PSMA-PC3 flu cells (in words) (PSMA-PC3 flu cells): no significant toxicity | remission of PSMA+ PC3 tumor bearing mice (PSMA+ PC3 PIP tumor [5]; mouse, in vivo): about 50% | body weight during treatment (in words) (PSMA+ PC3 PIP tumor [5]; single dose of 3 mCi): regained after 2 weeks | survival of mice in complete remission (PSMA+ PC3 PIP tumor [5]; single dose of 3 mCi): more than five months | therapeutic efficacy compared to the control group using saline (in words) (PSMA+ PC3 PIP tumor [5]; single dose of 3 mCi): decrease in tumor volume | mice showing complete eradication of tumors (PSMA+ PC3 PIP tumor [5]; single dose of 3 mCi via tail vein, n=10): 50% | number of mice with complete remission of the disease (PSMA+ PC3 PIP tumor [5]; single dose of 3 mCi, n=10): Five | Cell uptake PSMA − PC3 flu [3]: 0.09 percent incubated dose per one million cells | tissue biodistribution Bladder (PSMA+ PC3 PIP tumor [6]; 2 h): 3.39 ± 2.78 percent injected dose per gram | tissue biodistribution Bladder (PSMA+ PC3 PIP tumor [6]; 24 h): 0.31 ± 0.13 percent injected dose per gram | tissue biodistribution Bladder (PSMA+ PC3 PIP tumor [6]; 48 h): 0.12 ± 0.07 percent injected dose per gram | tissue biodistribution Bladder (PSMA+ PC3 PIP tumor [6]; 72 h): 0.06 ± 0.03 percent injected dose per gram | tissue biodistribution Blood (PSMA+ PC3 PIP tumor [6]; 2 h): 0.68 ± 0.25 percent injected dose per gram | tissue biodistribution Blood (PSMA+ PC3 PIP tumor [6]; 24 h): 0.01 ± 0.01 percent injected dose per gram | tissue biodistribution Blood (PSMA+ PC3 PIP tumor [6]; 48 h): 0.00 ± 0.01 percent injected dose per gram | tissue biodistribution Blood (PSMA+ PC3 PIP tumor [6]; 72 h): 0.00 ± 0.04 percent injected dose per gram | tissue biodistribution Fat (PSMA+ PC3 PIP tumor [6]; 2 h): 0.35 ± 0.10 percent injected dose per gram | tissue biodistribution Fat (PSMA+ PC3 PIP tumor [6]; 24 h): 0.08 ± 0.15 percent injected dose per gram | tissue biodistribution Fat (PSMA+ PC3 PIP tumor [6]; 48 h): 0.01 ± 0.01 percent injected dose per gram | tissue biodistribution Fat (PSMA+ PC3 PIP tumor [6]; 72 h): 0.06 ± 0.07 percent injected dose per gram | tissue biodistribution Heart (PSMA+ PC3 PIP tumor [6]; 2 h): 0.28 ± 0.08 percent injected dose per gram | tissue biodistribution Heart (PSMA+ PC3 PIP tumor [6]; 24 h): 0.02 ± 0.05 percent injected dose per gram | tissue biodistribution Heart (PSMA+ PC3 PIP tumor [6]; 48 h): 0.01 ± 0.00 percent injected dose per gram | tissue biodistribution Heart (PSMA+ PC3 PIP tumor [6]; 72 h): 0.01 ± 0.00 percent injected dose per gram | tissue biodistribution Kidney (PSMA+ PC3 PIP tumor [6]; 2 h): 87.10 ± 25.99 percent injected dose per gram | tissue biodistribution Kidney (PSMA+ PC3 PIP tumor [6]; 24 h): 1.65 ± 0.30 percent injected dose per gram | tissue biodistribution Kidney (PSMA+ PC3 PIP tumor [6]; 48 h): 1.02 ± 0.58 percent injected dose per gram | tissue biodistribution Kidney (PSMA+ PC3 PIP tumor [6]; 72 h): 0.62 ± 0.04 percent injected dose per gram | tissue biodistribution Liver (PSMA+ PC3 PIP tumor [6]; 2 h): 0.39 ± 0.13 percent injected dose per gram | tissue biodistribution Liver (PSMA+ PC3 PIP tumor [6]; 24 h): 0.11 ± 0.01 percent injected dose per gram | tissue biodistribution Liver (PSMA+ PC3 PIP tumor [6]; 48 h): 0.09 ± 0.02 percent injected dose per gram | tissue biodistribution Liver (PSMA+ PC3 PIP tumor [6]; 72 h): 0.07 ± 0.00 percent injected dose per gram | tissue biodistribution Lung (PSMA+ PC3 PIP tumor [6]; 2 h): 1.12 ± 0.33 percent injected dose per gram | tissue biodistribution Lung (PSMA+ PC3 PIP tumor [6]; 24 h): 0.06 ± 0.01 percent injected dose per gram | tissue biodistribution Lung (PSMA+ PC3 PIP tumor [6]; 48 h): 0.04 ± 0.01 percent injected dose per gram | tissue biodistribution Lung (PSMA+ PC3 PIP tumor [6]; 72 h): 0.04 ± 0.02 percent injected dose per gram | tissue biodistribution Muscle (PSMA+ PC3 PIP tumor [6]; 2 h): 0.68 ± 0.98 percent injected dose per gram | tissue biodistribution Muscle (PSMA+ PC3 PIP tumor [6]; 24 h): 0.01 ± 0.00 percent injected dose per gram | tissue biodistribution Muscle (PSMA+ PC3 PIP tumor [6]; 48 h): 0.00 ± 0.00 percent injected dose per gram | tissue biodistribution Muscle (PSMA+ PC3 PIP tumor [6]; 72 h): 0.02 ± 0.02 percent injected dose per gram | tissue biodistribution PC-3 Flu (PSMA+ PC3 PIP tumor [6]; 2 h): 0.39 ± 0.03 percent injected dose per gram | tissue biodistribution PC-3 Flu (PSMA+ PC3 PIP tumor [6]; 24 h): 0.10 ± 0.02 percent injected dose per gram | tissue biodistribution PC-3 Flu (PSMA+ PC3 PIP tumor [6]; 48 h): 0.05 ± 0.01 percent injected dose per gram | tissue biodistribution PC-3 Flu (PSMA+ PC3 PIP tumor [6]; 72 h): 0.06 ± 0.01 percent injected dose per gram | tissue biodistribution PC-3 PIP (PSMA+ PC3 PIP tumor [6]; 2 h): 55.04 ± 7.23 percent injected dose per gram | tissue biodistribution PC-3 PIP (PSMA+ PC3 PIP tumor [6]; 24 h): 40.61 ± 7.00 percent injected dose per gram | tissue biodistribution PC-3 PIP (PSMA+ PC3 PIP tumor [6]; 48 h): 27.00 ± 7.03 percent injected dose per gram | tissue biodistribution PC-3 PIP (PSMA+ PC3 PIP tumor [6]; 72 h): 24.90 ± 2.27 percent injected dose per gram | tissue biodistribution Pancreas (PSMA+ PC3 PIP tumor [6]; 2 h): 0.28 ± 0.09 percent injected dose per gram | tissue biodistribution Pancreas (PSMA+ PC3 PIP tumor [6]; 24 h): 0.02 ± 0.00 percent injected dose per gram | tissue biodistribution Pancreas (PSMA+ PC3 PIP tumor [6]; 48 h): 0.01 ± 0.01 percent injected dose per gram | tissue biodistribution Pancreas (PSMA+ PC3 PIP tumor [6]; 72 h): 0.01 ± 0.00 percent injected dose per gram | tissue biodistribution Salivary gland (Sal. Gl) (PSMA+ PC3 PIP tumor [6]; 2 h): 1.09 ± 0.08 percent injected dose per gram | tissue biodistribution Salivary gland (Sal. Gl) (PSMA+ PC3 PIP tumor [6]; 24 h): 0.09 ± 0.02 percent injected dose per gram | tissue biodistribution Salivary gland (Sal. Gl) (PSMA+ PC3 PIP tumor [6]; 48 h): 0.05 ± 0.03 percent injected dose per gram | tissue biodistribution Salivary gland (Sal. Gl) (PSMA+ PC3 PIP tumor [6]; 72 h): 0.05 ± 0.02 percent injected dose per gram | tissue biodistribution Sm. Int. (PSMA+ PC3 PIP tumor [6]; 2 h): 0.51 ± 0.32 percent injected dose per gram | tissue biodistribution Sm. Int. (PSMA+ PC3 PIP tumor [6]; 24 h): 0.03 ± 0.01 percent injected dose per gram | tissue biodistribution Sm. Int. (PSMA+ PC3 PIP tumor [6]; 48 h): 0.02 ± 0.00 percent injected dose per gram | tissue biodistribution Sm. Int. (PSMA+ PC3 PIP tumor [6]; 72 h): 0.02 ± 0.01 percent injected dose per gram | tissue biodistribution Spleen (PSMA+ PC3 PIP tumor [6]; 2 h): 3.76 ± 0.70 percent injected dose per gram | tissue biodistribution Spleen (PSMA+ PC3 PIP tumor [6]; 24 h): 0.15 ± 0.05 percent injected dose per gram | tissue biodistribution Spleen (PSMA+ PC3 PIP tumor [6]; 48 h): 0.08 ± 0.03 percent injected dose per gram | tissue biodistribution Spleen (PSMA+ PC3 PIP tumor [6]; 72 h): 0.08 ± 0.02 percent injected dose per gram | tissue biodistribution Stomach (PSMA+ PC3 PIP tumor [6]; 2 h): 0.87 ± 0.63 percent injected dose per gram | tissue biodistribution Stomach (PSMA+ PC3 PIP tumor [6]; 24 h): 0.04 ± 0.01 percent injected dose per gram | tissue biodistribution Stomach (PSMA+ PC3 PIP tumor [6]; 48 h): 0.05 ± 0.04 percent injected dose per gram | tissue biodistribution Stomach (PSMA+ PC3 PIP tumor [6]; 72 h): 0.04 ± 0.00 percent injected dose per gram | uptake in PSMA+ PC3 PIP tumor (in words) (PSMA+ PC3 PIP tumor [6]; mouse, in vivo): higher uptake and retention in PSMA+ PC3 PIP tumor uptake than ^177Lu-2
